# Laboratory results reported in patent publication US7282348B2, “Kit for measuring cytotoxicity of a test agent” (Promega Corporation, priority 2002, dated 2007).
# Tested on: L929 cells
# Test: Cytotoxicity of TNFα measured by LDH release (resazurin/diaphorase fluorescence)
# Assay type: cell-based, mouse
# Conditions: 20 hours incubation, in the presence of actinomycin D 1 μg/ml
# Procedure: A reagent solution was prepared combining a lyophilized substrate mixture with the assay buffer containing resazurin, and all of the ingredients required to measure the release of LDH from dead cells. The buffer solvent used to reconstitute the lyophilized substrate mixture was designed so that when it is used to reconstitute the mixture, the resulting solution has an osmolarity that is compatible with living cells. That is, the resulting solution was isotonic with the cells. When used to reconstitute the lyophilized substrate mix, the reagent solution contained:
# L929 cells were cultured in F-12/DME with 10% FBS and serially-diluted in a microtiter plate to yield duplicate wells containing approximately 0, 1562, 3125, 6250, 12,500, 25,000, and 50,000 cells per well, in 90 μl total volume. Cells were incubated at 37° C. for sufficient time to allow attachment (about 1.5 hours). […] The fluorescence of each well was then measured (excitation 560 nm, emission 590 nm).
# L929 cells (2000 cells/well) were prepared using a 384-well tissue culture plate in F-12/DME medium supplemented with 10% horse serum. […] Fluorescence was then determined at 560 nm excitation and 590 nm emission.
substance,measurement,setting,value
TNFα,concentration at or above which fluorescence remained essentially constant (all of the cells lysed),,about 0.125 ng/ml
same,"observed fluorescence (560 nm excitation, 590 nm emission) as a measure of cell lysis",TNF concentrations from zero to about 0.125 ng/ml,rose in a TNFα dose-dependent fashion
